A word on the melting point: it is the temperature, or range, at which the solid turns liquid.

With `Cc1ccc(-c2c3n(c(=O)c4ncccc24)CCC(C)CN(Cc2cc(C(F)(F)F)cc(C(F)(F)F)c2)C3=O)cc1` (racemic) [Reference Example 70, (+/−)-7-[3,5-Bis(trifluoromethyl)benzyl]-6,7,8,9,10,11-hexahydro-9-methyl-5-(4-methylphenyl)-6,13-dioxo-13H-[1,4]diazocino[2,1-g][1,7]naphthyridine], the melting point lay within 280 to 281 °C.
For `Cc1ccc(-c2c3n(c(=O)c4ncccc24)CCN(Cc2cc(C(F)(F)F)cc(C(F)(F)F)c2)C3=O)cc1` [Reference Example 55, 7-[3,5-Bis(trifluoromethyl)benzyl]-6,7,8,9-tetrahydro-5-(4-methylphenyl)-6,11-dioxo-11H-pyrazino[2,1-g][1,7]naphthyridine] the value was 270 to 271 °C.
As to `O=C1c2c(-c3ccccc3)ccnc2OCCN1Cc1cc(C(F)(F)F)cc(C(F)(F)F)c1` [Reference Example 65, 4-[3,5-Bis(trifluoromethyl)benzyl]-2,3,4,5-tetrahydro-5-oxo-6-phenylpyrido[3,2-f][1,4]oxazepine], the melting point lay in the range of 200 to 201 °C.
For the molecule `Cc1ccc(-c2c3n(c(=O)c4ncccc24)CC[C@@H](C)CN(Cc2cc(C(F)(F)F)cc(C(F)(F)F)c2)C3=O)cc1` [Reference Example 72, (9R)-7-[3,5-Bis(trifluoromethyl)benzyl]-6,7,8,9,10,11-hexahydro-9-methyl-5-(4-methylphenyl)-6,13-dioxo-13H-[1,4]diazocino[2,1-g][1,7]naphthyridine], the melting point is 226 to 228 °C.
Molecule `C[C@H]1CCn2c(c(-c3ccccc3)c3cccnc3c2=O)C(=O)N(Cc2cc(C(F)(F)F)cc(C(F)(F)F)c2)C1` [Reference Example 73, (9S)-7-[3,5-Bis(trifluoromethyl)benzyl]-6,7,8,9,10,11-hexahydro-9-methyl-6,13-dioxo-5-phenyl-13H-[1,4]diazocino[2,1-g] [1,7]naphthyridine] registered a melting point of 242 to 244 °C.
Consider `Cc1ccc(-c2c3n(c(=O)c4ncccc24)CC[C@H](C)CN(Cc2cc(C(F)(F)F)cc(C(F)(F)F)c2)C3=O)cc1` [Reference Example 74, (9S)-7-[3,5-Bis(trifluoromethyl)benzyl]-6,7,8,9,10,11-hexahydro-9-methyl-5-(4-methylphenyl)-6,13-dioxo-13H-[1,4]diazocino[2,1-g][1,7]naphthyridine], for which the melting point was 227 to 228 °C.
As to `O=C1c2c(-c3ccccc3)ccnc2NCCN1Cc1cc(C(F)(F)F)cc(C(F)(F)F)c1` [Reference Example 75, 4-[3,5-Bis(trifluoromethyl)benzyl]-2,3,4,5-tetrahydro-5-oxo-6-phenyl-1H-pyrido[2,3-e][1,4]diazepine], the melting point is 242 to 243 °C.
As to `Cc1cnc2c(c1-c1ccccc1)C(=O)N(Cc1cc(C(F)(F)F)cc(C(F)(F)F)c1)C[C@@H](C)CO2` [Reference Example 86, (R)-5-[3,5-Bis(trifluoromethyl)benzyl]-2,3,4,5-tetrahydro-3,8-dimethyl-6-oxo-7-phenyl-6H-pyrido[2,3-b][1,5]oxazocine], the melting point was in the range of 147 to 149 °C.
The molecule `Cc1cc(-c2ccccc2)c2c(n1)OCCCN(Cc1cc(C(F)(F)F)cc(C(F)(F)F)c1)C2=O` [Reference Example 88, 5-[3,5-Bis(trifluoromethyl)benzyl]-2,3,4,5-tetrahydro-9-methyl-6-oxo-7-phenyl-6H-pyrido[2,3-b][1,5]oxazocine] gave a melting point of 164 to 165 °C.
Regarding `CSCc1cc(-c2ccccc2)c2c(n1)OCCN(Cc1cc(C(F)(F)F)cc(C(F)(F)F)c1)C2=O` [Reference Example 96, 4-[3,5-Bis(trifluoromethyl)benzyl]-2,3,4,5-tetrahydro-8-methylthiomethyl-5-oxo-6-phenylpyrido[3,2-f][1,4]oxazepine], the melting point fell in the range of 165 to 166 °C.
In turn, `NCc1cc(-c2ccccc2)c2c(n1)OCCN(Cc1cc(C(F)(F)F)cc(C(F)(F)F)c1)C2=O` [Reference Example 97, 8-Aminomethyl-4-[3,5-bis(trifluoromethyl)benzyl]-2,3,4,5-tetrahydro-5-oxo-6-phenylpyrido[3,2-f][1,4]oxazepine] gave a melting point of 188 to 191 °C.
`CNCc1cc(-c2ccccc2)c2c(n1)OCCN(Cc1cc(C(F)(F)F)cc(C(F)(F)F)c1)C2=O` [Reference Example 98, 4-[3,5-Bis(trifluoromethyl)benzyl]-2,3,4,5-tetrahydro-8-methylaminomethyl-5-oxo-6-phenylpyrido[3,2-f][1,4]oxazepine] had a melting point of 152 to 154 °C.
With `CC(=O)NCc1cc(-c2ccccc2)c2c(n1)OCCN(Cc1cc(C(F)(F)F)cc(C(F)(F)F)c1)C2=O` [Reference Example 102, 8-Acetylaminomethyl-4-[3,5-bis(trifluoromethyl)benzyl]-2,3,4,5-tetrahydro-5-oxo-6-phenylpyrido[3,2-f][1,4]oxazepine], the melting point was in the range of 223 to 224 °C.
Take `CS(=O)(=O)NCc1cc(-c2ccccc2)c2c(n1)OCCN(Cc1cc(C(F)(F)F)cc(C(F)(F)F)c1)C2=O` [Reference Example 103, 4-[3,5-Bis(trifluoromethyl)benzyl]-2,3,4,5-tetrahydro-8-methanesulfonylaminomethyl-5-oxo-6-phenylpyrido[3,2-f][1,4]oxazepine]: the melting point lay in the range of 194 to 195 °C.
With `Cc1cnc2c(c1-c1ccccc1)C(=O)N(Cc1cc(C(F)(F)F)cc(C(F)(F)F)c1)CCN(C)C2=O` [Reference Example 104, 6-[3,5-Bis(trifluoromethyl)benzyl]-5,6,7,8,9,10-hexahydro-3,9-dimethyl-5,10-dioxo-4-phenylpyrido[2,3-f][1,4]diazocine], the melting point is 203 to 205 °C.
Molecule `CN1CCN(Cc2cc(C(F)(F)F)cc(C(F)(F)F)c2)C(=O)c2c(-c3ccccc3)ccnc2C1=O` [Reference Example 105, 6-[3,5-Bis(trifluoromethyl)benzyl]-5,6,7,8,9,10-hexahydro-9-methyl-5,10-dioxo-4-phenylpyrido[2,3-f][1,4]diazocine] returned a melting point of 167 to 169 °C.
The molecule `Cc1cnc2c(c1-c1ccccc1)C(=O)N(Cc1ccccc1)CCN(C)C2=O` [Reference Example 106, 6-Benzyl-5,6,7,8,9,10-hexahydro-3,9-dimethyl-5,10-dioxo-4-phenylpyrido[2,3-f][1,4]diazocine] registered a melting point of 183 to 184 °C.
In turn, `CCN1CCN(Cc2cc(C(F)(F)F)cc(C(F)(F)F)c2)C(=O)c2c(ncc(C)c2-c2ccccc2)C1=O` [Reference Example 107, 6-[3,5-Bis(trifluoromethyl)benzyl]-9-ethyl-5,6,7,8,9,10-hexahydro-3-methyl-5,10-dioxo-4-phenylpyrido[2,3-f][1,4]diazocine] came in with a melting point of 228 to 229 °C.
The molecule `Cc1cnc2c(c1-c1ccccc1)C(=O)N(Cc1cc(C(F)(F)F)cc(C(F)(F)F)c1)CCCN(C)C2=O` [Reference Example 108, 6-[3,5-Bis(trifluoromethyl)benzyl]-6,7,8,9,10,11-hexahydro-3,10-dimethyl-5,11-dioxo-4-phenyl-5H-pyrido[2,3-g][1,5]diazonine] had a melting point of 247 to 249 °C.
Turning to `CNC(=O)c1cc(-c2ccccc2)c2c(n1)OCCN(Cc1cc(C(F)(F)F)cc(C(F)(F)F)c1)C2=O` [Reference Example 112, 4-[3,5-Bis(trifluoromethyl)benzyl]-N-methyl-2,3,4,5-tetrahydro-5-oxo-6-phenylpyrido[3,2-f][1,4]oxazepine-8-carboxamide], the melting point was 145 °C (dec.).

The values are drawn from US20020132817A1, “Heterocyclic compounds, their production and use” (priority 1998, published 2002).
